Data from ChEMBL document CHEMBL5331085 (Eur J Med Chem, 2023).
Values after ≈ are worked out from the molar mass of the structure shown. Values joined by “and” are separate entries in the source; they are usually repeats but may differ in a detail not shown here. Identical values can stand only once. Active and inactive are the calls of the source. The calls are words filed in the database; no cut-off is given here. Positions of bridges follow the written chain, without caps; N, C: chain ends. Non-standard residues stand in square brackets, D forms with d. Residues, ends and D or L forms follow the SMILES beside them. *: point of attachment. Ileψ(thiazoline)Cys = CC[C@H](C)[C@H](N)C1=N[C@H](C(=O)*)CS1; dOrn = NCCC[C@@H](N)C(=O)O

Experiments:
[1] = Cytotoxicity against human WPMY-1 cells assessed as inhibition of cell growth incubated for 72 hrs by CCK-8 assay; assay type: toxicity, cell-based
[2] = Cytotoxicity against HUVEC cells assessed as inhibition of cell growth incubated for 72 hrs by CCK-8 assay; assay type: toxicity, cell-based; conditions: human
[3] = Cytotoxicity against human BGC cells assessed as inhibition of cell growth incubated for 72 hrs by CCK-8 assay; assay type: toxicity, cell-based
Enterococcus faecium = experiment: Antimicrobial activity against Enterococcus faecium ATCC 29212 incubated for 16 to 20 hrs by CLSI based broth dilution method; assay type: functional
Escherichia coli = experiment: Antimicrobial activity against Escherichia coli ATCC 25922 incubated for 16 to 20 hrs by CLSI based broth dilution method; assay type: functional; conditions: time 16-20 hrs
[4] = (§1) Hemolytic activity in sheep erythrocytes incubated for 1 hr by absorbance based analysis; assay type: toxicity, cell-based, Ovis aries, Erythrocyte; conditions: sheep erythrocytes
Staphylococcus aureus [5] = experiment: Antimicrobial activity against Staphylococcus aureus ATCC 29213 incubated for 16 to 20 hrs by CLSI based broth dilution method; assay type: functional; conditions: time 16-20 hrs
[6] = tested on: Stenotrophomonas maltophilia; experiment: Antimicrobial activity against Stenotrophomonas maltophilia ATCC 17808 incubated for 16 to 20 hrs by CLSI based broth dilution method; assay type: functional; conditions: time 16-20 hrs
Staphylococcus aureus [7] = experiment: Induction of drug resistance in Staphylococcus aureus ATCC 29213 at 0.1 times MIC measured after 20 passages; assay type: functional
Staphylococcus aureus [8] = experiment: Antimicrobial activity against Staphylococcus aureus; assay type: functional
Staphylococcus aureus [9] = experiment: Antimicrobial activity against methicillin-resistant Staphylococcus aureus incubated for 16 to 20 hrs by CLSI based broth dilution method; assay type: functional; conditions: time 16-20 hrs
Erythrocyte = experiment: as §1; assay type: toxicity, cell-based, Ovis aries; conditions: erythrocyte, 1 h
[10] = Induction of drug resistance in Staphylococcus aureus ATCC 29213 assessed as test compound MIC at sub-MIC measured after 20 days (reference value: 1 ug/ml); assay type: functional; conditions: ATCC 29213, 480 h, time 20 day
Staphylococcus aureus [11] = experiment: Antibacterial activity against Staphylococcus aureus ATCC 29213 assessed as inhibition of bacterial growth at 0.5 ug/ml incubated for 16 to 18 hrs in presence of genomic DNA at 0.125 to 4 ug/ml by microplate reader analysis; assay type: functional, organism-based; conditions: dose 0.5 µg/ml, time 16-18 hrs
Staphylococcus aureus [12] = experiment: Antimicrobial activity against methicillin-resistant Staphylococcus aureus infected in Kunming female mouse assessed as reduction in bacterial load in skin administered at labeled position and measured after 24 hrs; assay type: functional, organism-based; conditions: dose 5-10 mg/kg/day
[13] = Enterococcus faecium, ATCC 29212, time 16-20 hrs, read-out: MIC
[14] = Escherichia coli, ATCC 25922, read-out: MIC
[15] = Staphylococcus aureus, ATCC 29213, read-out: MIC
[16] = Stenotrophomonas maltophilia, ATCC 17808, read-out: MIC

Row | Compound | MIC (Enterococcus faecium; [13]) [µg/mL] | MIC (Escherichia coli; [14]) [µg/mL] | HC50 at 1 h [4] [µg/mL] | MIC (Staphylococcus aureus [5]; [15]) [µg/mL] | MIC [6, 16] [µg/mL] | also measured
1 | C=C[C@]1(C)C[C@@H](OC(=O)CS[C@@H]2C[C@H]3CC[C@@H](C2)N3C)[C@]2(C)[C@H](C)CC[C@]3(CCC(=O)[C@H]32)[C@@H](C)[C@@H]1O [RETAPAMULIN] | – | – | – | – | – | IC50 at 72 h [1]: 13.9 µg/mL (≈ 26.8 µM); IC50 at 72 h [2]: 25.5 µg/mL (≈ 49.2 µM); IC50 at 72 h [3]: 16 µg/mL (≈ 30.9 µM)
2 | CCCCCCCC[N+](C)(C)CCCOc1cccc(-c2cccc(OCCC[N+](C)(C)CCCCCCCC)c2)c1.[Br-].[Br-] | 0.5 | 1 | 145 | 2 | 2 | –
3 | C[C@H]1COc2c(N3CCN(C)CC3)c(F)cc3c(=O)c(C(=O)O)cn1c23 | – | – | – | – | – | Activity (Staphylococcus aureus [7]): Active
4 | CC[C@H](C)[C@H](N)C1=N[C@H](C(=O)N[C@@H](CC(C)C)C(=O)N[C@H](CCC(=O)O)C(=O)N[C@H](C(=O)N[C@H]2CCCCNC(=O)[C@H](CC(N)=O)NC(=O)[C@@H](CC(=O)O)NC(=O)[C@H](Cc3cnc[nH]3)NC(=O)[C@@H](Cc3ccccc3)NC(=O)[C@H]([C@@H](C)CC)NC(=O)[C@@H](CCCN)NC2=O)[C@@H](C)CC)CS1 [BACITRACIN] ({Ileψ(thiazoline)Cys}-L[dE]IK[dOrn]I[dF]H[dD]N; lactam 4-C) | 16 (≈ 11.2 µM) | > 128 | – | 16 (≈ 11.2 µM) | – | –
5 | CCCCCCN(CCCOc1ccccc1-c1ccccc1OCCCN(CCCCCC)C(=O)[C@@H](N)CCCCN)C(=O)[C@@H](N)CCCCN.Cl.Cl.Cl.Cl | – | – | – | – | – | MIC (Staphylococcus aureus [8]): 0.5 µg/mL
6 | CC[C@H]1OC(=O)[C@H](C)[C@@H](O[C@H]2C[C@@](C)(OC)[C@@H](O)[C@H](C)O2)[C@H](C)[C@@H](O[C@@H]2O[C@H](C)C[C@H](N(C)C)[C@H]2O)[C@](C)(O)C[C@@H](C)C(=O)[C@H](C)[C@@H](O)[C@]1(C)O [ERYTHROMYCIN] | – | – | – | – | – | MIC90 (Staphylococcus aureus [9]): 128 µg/mL (≈ 174 µM)
7 | CCCCCCCCCCCC[N+](C)(C)CCCOc1ccccc1-c1ccccc1OCCC[N+](C)(C)CCCCCCCCCCCC.[Br-].[Br-] | 4 | 32 | 12 | 16 | 32 | –
8 | CCCCCC[N+](C)(C)CCCOc1ccccc1-c1ccccc1OCCC[N+](C)(C)CCCCCC.[Br-].[Br-] | 16 | 128 | > 1280 | 2 | 128 | –
9 | CCCCCCCCCC[N+](C)(C)CCCOc1ccccc1-c1ccccc1OCCC[N+](C)(C)CCCCCCCCCC.[Br-].[Br-] | 1 | 4 | 10 | 2 | 4 | –
10 | CCCCCC[N+](C)(C)CCCOc1ccc2ccccc2c1-c1c(OCCC[N+](C)(C)CCCCCC)ccc2ccccc12.[Br-].[Br-] | 4 | 8 | – | 8 | 8 | MIC (Enterococcus faecium; time 16-20 hrs): 8 µg/mL; MIC (Escherichia coli): 8 µg/mL; HC50 (Erythrocyte): 405 µg/mL and 868 µg/mL; MIC (Staphylococcus aureus [5]): 8 µg/mL; MIC [6]: 8 µg/mL
11 | O=C(O)c1cn(C2CC2)c2cc(N3CCNCC3)c(F)cc2c1=O | – | – | – | – | – | Activity (Staphylococcus aureus [7]): Active
12 | CCCCCCCCCC[N+](C)(C)CCCOc1ccc2ccccc2c1-c1c(OCCC[N+](C)(C)CCCCCCCCCC)ccc2ccccc12.[Br-].[Br-] | 16 | 16 | 228 | 16 | 16 | MIC (Enterococcus faecium; time 16-20 hrs): 16 µg/mL; MIC (Escherichia coli): 16 µg/mL; HC50 (Erythrocyte): 371 µg/mL; MIC (Staphylococcus aureus [5]): 16 µg/mL; MIC [6]: 16 µg/mL
13 | CCCCCCCC[N+](C)(C)CCCOc1ccc2ccccc2c1-c1c(OCCC[N+](C)(C)CCCCCCCC)ccc2ccccc12.[Br-].[Br-] | 2 | 2 | 28 | 2 | 2 | MIC (Enterococcus faecium; time 16-20 hrs): 2 µg/mL; MIC (Escherichia coli): 2 µg/mL; HC50 (Erythrocyte): 20 µg/mL; MIC (Staphylococcus aureus [5]): 2 µg/mL; MIC [6]: 2 µg/mL
14 | CC1(C)S[C@@H]2[C@H](NC(=O)[C@H](N)c3ccccc3)C(=O)N2[C@H]1C(=O)O | – | – | – | – | – | Activity (Staphylococcus aureus [7]): Active
15 | GENTAMICIN | – | – | – | – | – | MIC90 (Staphylococcus aureus [9]): 2 µg/mL
16 | CCn1cc(C(=O)O)c(=O)c2cc(F)c(N3CCNCC3)cc21 [NORFLOXACIN] | – | – | – | – | – | MIC [10]: 64 µg/mL
17 | C[C@@H](O)[C@H]1C(=O)N2C(C(=O)O)=C(S[C@@H]3CN[C@H](C(=O)N(C)C)C3)[C@H](C)[C@H]12 [MEROPENEM] | – | 0.063 (≈ 0.164 µM) | > 1280 | – | – | –
18 | CCCCCCCCCC[N+](C)(C)CCCOc1cccc(-c2cccc(OCCC[N+](C)(C)CCCCCCCCCC)c2)c1.[Br-].[Br-] | 0.5 | 2 | 19 | 1 | 2 | –
19 | COLISTIN | – | – | – | – | – | Activity (Staphylococcus aureus [11]): Active
20 | COc1cccc(OC)c1C(=O)N[C@@H]1C(=O)N2[C@@H]1SC(C)(C)[C@@H]2C(=O)O | – | – | – | – | – | Activity (Staphylococcus aureus [7]): Active
21 | CCCCCCCCCC[N+](C)(C)CCCOc1ccc(-c2ccc(OCCC[N+](C)(C)CCCCCCCCCC)cc2)cc1.[Br-].[Br-] | 0.5 | 2 | 18 | 1 | 2 | –
22 | CCCCCCCC[N+](C)(C)CCCOc1ccccc1-c1ccccc1OCCC[N+](C)(C)CCCCCCCC.[Br-].[Br-] | 0.5 | 1 | 109 | 1 | 2 | –
23 | CO[C@H]1/C=C/O[C@@]2(C)Oc3c(C)c(O)c4c(O)c(c(/C=N/N5CCN(C)CC5)c(O)c4c3C2=O)NC(=O)/C(C)=C\C=C\[C@H](C)[C@H](O)[C@@H](C)[C@@H](O)[C@@H](C)[C@H](OC(C)=O)[C@@H]1C [RIFAMPIN] | – | – | – | – | – | MIC90 (Staphylococcus aureus [9]): 128 µg/mL (≈ 156 µM)
24 | CCCCCCCC[N+](C)(C)CCCOc1ccc(-c2ccc(OCCC[N+](C)(C)CCCCCCCC)cc2)cc1.[Br-].[Br-] | 0.5 | 1 | 83 | 1 | 2 | –
25 | CCCCCCN(CCCOc1ccc(-c2ccc(OCCCN(CCCCCC)C(=O)[C@@H](N)CCCCN)cc2)cc1)C(=O)[C@@H](N)CCCCN.Cl.Cl.Cl.Cl | – | – | – | – | – | MIC (Staphylococcus aureus [8]): 1 µg/mL
26 | CCCCCC[N+](C)(C)CCCOc1ccc(-c2ccc(OCCC[N+](C)(C)CCCCCC)cc2)cc1.[Br-].[Br-] | 1 | 2 | 487 | 2 | 1 | –
27 | CN[C@H](CC(C)C)C(=O)N[C@H]1C(=O)N[C@@H](CC(N)=O)C(=O)N[C@H]2C(=O)N[C@H]3C(=O)N[C@H](C(=O)N[C@H](C(=O)O)c4cc(O)cc(O)c4-c4cc3ccc4O)[C@H](O)c3ccc(c(Cl)c3)Oc3cc2cc(c3O[C@@H]2O[C@H](CO)[C@@H](O)[C@H](O)[C@H]2O[C@H]2C[C@](C)(N)[C@H](O)[C@H](C)O2)Oc2ccc(cc2Cl)[C@H]1O [VANCOMYCIN] | – | – | > 1280 | – | – | Activity (Staphylococcus aureus [12]): Dose-Dependent Effect; MIC90 (Staphylococcus aureus [9]): 2 µg/mL (≈ 1.38 µM)
28 | C[C@H]1c2cccc(O)c2C(=O)C2=C(O)[C@]3(O)C(=O)C(C(N)=O)=C(O)[C@@H](N(C)C)[C@@H]3[C@@H](O)[C@@H]21.O [DOXYCYCLINE] | – | – | – | – | – | MIC90 (Staphylococcus aureus [9]): 8 µg/mL
